pKi: −log10 of the molar value.
Columns and labels:
[1] = body weight loss in tumour-bearing mice; assay type: in vivo; conditions: for body weight loss at the end of the study: MDA-MB-231 model
[2] = system: B16; test: in vitro cytotoxicity (LC50); assay type: cell-based; conditions: read-out: LC50 (concentration lethal to 50% of cells)
[3] = system: HepG2 cells; test: in vitro cytotoxicity (LC50); assay type: cell-based; conditions: read-out: LC50 (concentration lethal to 50% of cells)
[4] = system: B16F0 lung metastases; test: B16F0 experimental lung metastasis model; assay type: in vivo, C57Bl6 mice; conditions: 20 mg kg^−1
Description: (§1) In the orthotopic Hep3b2.1-7 human liver cancer model, treatment of mice (n=10) began 14 days after inoculation of 2.5 × 10^6 cells. […] To initiate tumour xenografts, MDA-MB-231, PC3, Cal27 and HepG2 cells were injected s.c. into nude mice (n=8) at 4, 5, 2 and 2 × 10^7 cells ml^−1, respectively. […] In the B16F0 lung metastasis model, 2 × 10^5 cells were injected via the tail vein of C57Bl6 mice (n=8). […] Surface lung macrometastases were counted for each group (n=9) upon study termination. In the intrasplenic HT-29 xenograft model, 1 × 10^6 cells in 100 μl were injected into the spleen. […] Solid tumours were measured in two dimensions (length and width) and the tumour volume (cm^3) was calculated using the equation: V=length × width^2 × π/6. The anti-tumour activity was expressed as percent tumour growth inhibition (%TGI). Further details are available in Supplementary Methods. […]
antibody. […]
staining. For quantification, three independent visual fields (20x magnification) were chosen and positive stained spots or vessels with identifiable lumen were counted.
Angiogenesis inhibition and induction were calculated using the equations: […]
regimen both before and after tumour cell inoculation (days -6, -3, 0, +3, +6) or only after tumour cell inoculation (days 0, +3, +6). B16 cell (2x105) were inoculated via tail vein injections and mice were culled and assessed for lung metastases on day 12. […]

[5] = system: LL/2 tumours and lung metastases; test: syngeneic Lewis Lung Carcinoma (LL/2) tumour growth and spontaneous metastasis model; assay type: in vivo, mice
Description: as §1
efficacy/PK study) using either a once or twice weekly dosing schedule (see figure legends for dose schedules in each study) for up to three weeks. […]
In the LL/2 mouse model, treatment of mice commenced on the day of inoculation (Day 0). Mice inoculated subcutaneously were treated with either Vehicle Control […]
once weekly or Sorafenib (60mg/kg, once daily, p.o.). The treatments were continued for three weeks. The lungs were excised from all mice at the time of culling for metastasis […]
count determination. […]
In relevant models, solid tumours were measured in two dimensions (length and width) and the tumour volume (mm3) calculated using the equation V = length × width2 × π/6.The anti-tumour activity was assessed by the comparison of the mean tumour volume of the treated groups to the mean tumour volume of the control group and expressed as the percent Tumour Growth Inhibition (TGI) using the equation:
%TGI = (1-((VendPG545 - VstartPG545) / (VendControl - VstartControl)))*100 VendPG545 = Ending Tumour Volume of PG545-treated animal
VstartPG545 = Starting Tumour Volume of PG545-treated animal
VendControl = Ending Tumour Volume of Control animal
VstartControl = Starting Tumour Volume of Control animal […]
After collection, 0.2 mL of […]
whole blood was added to a glass scintillation vial to which 1 mL Solvable was added.
Samples were incubated for one hour at 55-60°C. 0.1 mL of 0.1 M EDTA-di-sodium salt solution and 0.3 mL to 0.5 mL of 30% hydrogen peroxide in 0.1 mL aliquots were added to the sample. Samples were gently agitated between additions to allow reaction foaming to subside. Samples were incubated for 30 minutes at room temperature. Vials were capped tightly and incubated again at 55 – 60 °C fo r 1 hour. Samples were cooled to room temperature and 15 mL of ULTIMA Gold added.
For tumour samples, 100 mg of tissue was placed in a 20 mL glass scintillation vial and 2 mL of Solvable added. The samples were incubated at 50 - 60 °C for 1 hour with occasional swirling. Samples were cooled to room temperature and for tumours, 0.3 mL of 30% hydrogen peroxide in three aliquots of 0.1 mL were added. The samples were again incubated at 50 - 60 °C for 1 hour with occasional swirling. Tumours samples were […]

[6] = toxicity / toxicology studies; assay type: in vivo
[7] = target: heparanase; set-up: method as in Dredge et al, 2010; conditions: ref Dredge et al, 2010; read-out: Ki (heparanase inhibitor); cited from earlier work
[8] = system: angiogenesis (endothelial cells, rat aortic ring); set-up: method as in Dredge et al, 2010; conditions: endothelial cell assays in vitro and ex vivo rat aortic ring assay; ref Dredge et al, 2010; cited from earlier work

## CC(C)CCC[C@@H](C)[C@H]1CCC2C3CCC4C[C@@H](O[C@@H]5O[C@H](COS(=O)(=O)[O-])[C@@H](O[C@H]6O[C@H](COS(=O)(=O)[O-])[C@@H](O[C@H]7O[C@H](COS(=O)(=O)[O-])[C@@H](O[C@H]8O[C@H](COS(=O)(=O)[O-])[C@@H](OS(=O)(=O)[O-])[C@H](OS(=O)(=O)[O-])[C@H]8OS(=O)(=O)[O-])[C@H](OS(=O)(=O)[O-])[C@H]7OS(=O)(=O)[O-])[C@H](OS(=O)(=O)[O-])[C@H]6OS(=O)(=O)[O-])[C@H](OS(=O)(=O)[O-])[C@H]5OS(=O)(=O)[O-])CC[C@]4(C)C3CC[C@@]21C.[Na+].[Na+].[Na+].[Na+].[Na+].[Na+].[Na+].[Na+].[Na+].[Na+].[Na+].[Na+].[Na+] (some centres unmarked) [PG545]
[1]; B16 model
  body weight loss nadir: 8%
[1]; HT-29 model
  body weight loss nadir: 12%
[1]; Hep3b2.1-7 model, 20 mg kg^−1 followed by twice-weekly 10 mg kg^−1
  body weight loss: 4%
[1]; Hep3b2.1-7 model, 20 mg kg^−1 twice-weekly
  body weight loss: 9%
[1]; LL/2 model
  body weight nadir (loss): 5%
[1]; 20 mg kg^−1 once-weekly
  body weight loss at the end of the study: 4%
[1]; 20 mg kg^−1 twice-weekly
  body weight loss at the end of the study: 6%
[1]; 30 mg kg^−1 once-weekly
  body weight loss at the end of the study: 11%
[1]; 30 mg kg^−1 twice-weekly
  body weight loss at the end of the study: 10%
[1]; PC3 model, 20 mg kg^−1 once-weekly
  body weight loss: 6%
[1]; PC3 model, 20 mg kg^−1 twice-weekly
  body weight loss: 16%
[2]
  CC50: > 200000 nM
[3]
  CC50: > 100000 nM
[4]; days 0, +3, +6
  TGI (lung metastases): 62%
[4]; days −6, −3, 0, +3, +6
  TGI (lung metastases): 99%
[5]; 20 mg kg^−1 once-weekly
  TGI (primary tumour): 46%
  TGI / inhibition (lung metastases): 96%
[5]; 20 mg kg^−1 single dose
  TGI (lung metastases): 67%
  TGI (primary tumour): 15%
[5]; 40 mg kg^−1 once-weekly
  TGI (lung metastases): 67%
  TGI (primary tumour): 57%
[5]; 40 mg kg^−1 single dose
  TGI (primary tumour): 33%
[6]; high doses, toxicology studies, reversible (data not shown)
  activated partial thromboplastin time: increased activated partial thromboplastin time
[6]; toxicity studies (data not shown)
  body weight loss in other species: did not lead to significant body weight loss
[7]
  pKi: 8.22
[8]
  angiogenesis inhibitor potency: ≤ 1000 nM
